Values after ≈ are worked out from the molar mass of the structure shown.

The record followed here is ChEMBL document CHEMBL1144539, “Fluoro-ketopyranosyl nucleosides: synthesis and biological evaluation of 3-fluoro-2-keto-beta-D-glucopyranosyl derivatives of N4-benzoyl cytosine” (Bioorg Med Chem, 2007).

The nature of test [1]: Antiviral activity against bovine rotavirus RF in MA104 cells. It counts as functional, cell-based, Bovine rotavirus strain RF. Conditions: Rotavirus A.
The nature of test [2]: Antiviral activity against bovine rotavirus RF in MA 104 cells assessed as neutralization of virus in solution before cell attachment. It counts as functional, cell-based, Bovine rotavirus strain RF. To be noted: Rotavirus A.
The nature of test [3]: Inhibition of bovine rotavirus RF infectivity following virus attachment to MA 104 cells. It counts as functional, cell-based, Bovine rotavirus strain RF. Conditions: Rotavirus A.
Test [4] has as its system Caco-2. Briefly: Growth inhibition of human Caco-2 cells after 72 hrs. It counts as functional, cell-based. To be noted: Caco-2, 72 h.
Test [5] relates to Caco-2. Briefly: Cytotoxicity against human Caco-2 cells after 72 hrs. It counts as cell-based. To be noted: Caco-2, 72 h.
Test [6] is described as follows: Stimulation of proliferation of monkey MA104 cells at 30 ng/mL after 72 hrs relative to control. It counts as functional, Macaca mulatta.

What is called IC50 is the concentration at which inhibition is half-maximal. With `Cc1cn([C@H]2C[C@H](N=[N+]=[N-])[C@@H](CO)O2)c(=O)[nH]c1=O` [ZIDOVUDINE], the IC50 in test [1] worked out at 4 µg/mL (≈ 15 µM); in test [2] it was 60 µg/mL (≈ 225 µM); in test [3], 15 µg/mL (≈ 56.1 µM); in the test with Caco-2 [4] it was 15 µg/mL (≈ 56.1 µM); in the test with Caco-2 [5], 15 µg/mL (≈ 56.1 µM).

`O=C(Nc1ccn(C[C@@H]2O[C@H](CO)[C@@H](O)[C@H](F)C2=O)c(=O)n1)c1ccccc1` registered an Activity in test [6] of 40%. Besides, the half-inhibitory concentration (IC50) came to 70 µg/mL (≈ 179 µM) in test [2], 70 µg/mL (≈ 179 µM) in test [3], 2500 µg/mL (≈ 6390 µM) in the test with Caco-2 [4] and 1500 µg/mL (≈ 3830 µM) with Caco-2 [5].
